Test results: US20130102593A1, “PYRROLIDINE COMPOUNDS WHICH INHIBIT BETA-SECRETASE ACTIVITY AND METHODS OF USE THEREOF” (priority 2008, published 2013)
pIC50: −log10 of the molar value.

system: Aβ production; experiment: Cellular Aβ IC50 determination (memapsin 2 activity in a cellular assay of Aβ production); type: cell-based, Chinese hamster; settings: Cricetulus griseus; CHO cells over-expressing human APP695, Aβ40 ELISA; read-out: M2 IC50
Procedure: The potency of compounds against memapsin 2 activity was determined in a cellular assay of Aβ production. […] Chinese hamster ovary cells that over-express human APP695 with the London and Swedish mutations were seeded in multi-well plates at 10% confluency. Compounds are dissolved in DMSO to concentrations near 1 mM, and diluted into culture media to a final concentration near 4 μM (final 0.4% DMSO). Compounds were diluted serially and applied to cells in multi-well plates 48 h after seeding. Incubation was continued in 5% CO2 at 37° C. for 24 h. Aliquots were removed and assayed for […] content using a sandwich ELISA (BioSource International). Amount of Aβ40 over the range of concentration of compounds, relative to control incubations, were fit to a 4-parameter IC50 model.

| pIC50 | SMILES |
| --- | --- |
| 7.25 | Cc1csc([C@H]2CCCN2C(=O)c2cc(C(=O)N[C@@H](Cc3ccccc3)[C@H](O)[C@H]3C[C@@H](OCc4ccccc4)CN3)cc(-n3cccc3)c2)n1 [1-25, N-((1R,2S)-1-((2R,4R)-4-(benzyloxy)pyrrolidin-2-yl)-1-hydroxy-3-phenylpropan-2-yl)-3-((R)-2-(4-methylthiazol-2-yl)pyrrolidine-1-carbonyl)-5-(1H-pyrrol-1-yl)benzamide] |

same assay, conditions: Cricetulus griseus; Chinese hamster ovary cells over-expressing human APP695 with London and Swedish mutations, 24 h, Aβ40 sandwich ELISA; read-out: M2 IC50

| SMILES | pIC50 |
| --- | --- |
| Cc1csc(CN(C)C(=O)c2cccc(C(=O)N[C@@H](Cc3ccccc3)[C@H](O)[C@H]3CCCN3C(=O)OC(C)(C)C)c2)n1 [1-1, (R)-tert-butyl 2-((1S,2S)-1-hydroxy-2-(3-(methyl((4-methylthiazol-2-yl)methyl)carbamoyl)benzamido)-3-phenylpropyl)pyrrolidine-1-carboxylate] | < 6.00 |
| Cc1csc(CN(C)C(=O)c2cccc(C(=O)N[C@@H](Cc3ccccc3)[C@H](O)[C@H]3CCCN3)c2)n1 [1-2, N1-((1R,2S)-1-hydroxy-3-phenyl-1-((R)-pyrrolidin-2-yl)propan-2-yl)-N3-methyl-N3-((4-methylthiazol-2-yl)methyl)isophthalamide] | < 6.00 |
| C[C@@H](NC(=O)c1cc(C(=O)N[C@@H](Cc2ccccc2)[C@H](O)[C@H]2CCCN2C(=O)OC(C)(C)C)cc(N(C)S(C)(=O)=O)c1)c1ccccc1 [1-5, (R)-tert-butyl 2-((1S,2S)-1-hydroxy-2-(3-(N-methylmethylsulfonamido)-5-((R)-1-phenylethylcarbamoyl)benzamido)-3-phenylpropyl)pyrrolidine-1-carboxylate] | < 6.00 |
| Cc1cc(C(=O)N[C@@H](Cc2ccccc2)[C@H](O)[C@H]2CCCN2C(=O)OC(C)(C)C)cc(C(=O)N2CCC[C@@H]2c2nc(C)co2)c1 [1-6, (R)-tert-butyl 2-((1S,2S)-1-hydroxy-2-(3-methyl-5-((R)-2-(4-methyloxazol-2-yl)pyrrolidine-1-carbonyl)benzamido)-3-phenylpropyl)pyrrolidine-1-carboxylate] | < 6.00 |
| Cc1csc(CN(C)C(=O)c2cc(C(=O)N[C@@H](Cc3ccccc3)[C@H](O)[C@H]3CCCN3C(=O)OC(C)(C)C)cc(-c3ncco3)c2)n1 [1-7, (R)-tert-butyl 2-((1S,2S)-1-hydroxy-2-(3-(methyl((4-methylthiazol-2-yl)methyl)carbamoyl)-5-(oxazol-2-yl)benzamido)-3-phenylpropyl)pyrrolidine-1-carboxylate] | < 6.00 |
| Cc1csc(CN(C)C(=O)c2cccc(C(=O)N[C@@H](Cc3ccccc3)[C@H](O)[C@H]3C[C@@H](OCc4ccccc4)CN3)c2)n1 [1-9, N1-((1R,2S)-1-((2R,4R)-4-(benzyloxy)pyrrolidin-2-yl)-1-hydroxy-3-phenylpropan-2-yl)-N3-methyl-N3-((4-methylthiazol-2-yl)methyl)isophthalamide] | > 6.30 |
| Cc1csc(CN(C)C(=O)c2cccc(C(=O)N[C@@H](Cc3ccccc3)[C@H](O)[C@H]3C[C@@H](O)CN3)c2)n1 [1-10, N1-((1R,2S)-1-hydroxy-1-((2R,4R)-4-hydroxypyrrolidin-2-yl)-3-phenylpropan-2-yl)-N3-methyl-N3-((4-methylthiazol-2-yl)methyl)isophthalamide] | < 6.00 |
| C[C@@H](NC(=O)c1cc(C(=O)N[C@@H](Cc2ccccc2)[C@H](O)[C@H]2CCCN2)cc(N(C)S(C)(=O)=O)c1)c1ccccc1 [1-11, N1-((1R,2S)-1-hydroxy-3-phenyl-1-((R)-pyrrolidin-2-yl)propan-2-yl)-5-(N-methylmethylsulfonamido)-N3-((R)-1-phenylethyl)isophthalamide] | > 6.30 |
| Cc1csc(CN(C)C(=O)c2cc(C(=O)N[C@@H](Cc3ccccc3)[C@H](O)[C@H]3CCCN3)cc(-c3cnco3)c2)n1 [1-12, N1-((1R,2S)-1-hydroxy-3-phenyl-1-((R)-pyrrolidin-2-yl)propan-2-yl)-N3-methyl-N3-((4-methylthiazol-2-yl)methyl)-5-(oxazol-5-yl)isophthalamide] | < 6.00 |
| Cc1csc(CN(C)C(=O)c2cc(C(=O)N[C@@H](Cc3ccccc3)[C@H](O)[C@H]3CCCN3)cc(-n3cccc3)c2)n1 [1-13, N1-((1R,2S)-1-hydroxy-3-phenyl-1-((R)-pyrrolidin-2-yl)propan-2-yl)-N3-methyl-N3-((4-methylthiazol-2-yl)methyl)-5-(1H-pyrrol-1-yl)isophthalamide] | 6.00 to 6.30 |
| Cc1csc([C@H]2CCCN2C(=O)c2cccc(C(=O)N[C@@H](Cc3ccccc3)[C@H](O)[C@H]3C[C@@H](OCc4ccccc4)CN3)c2)n1 [1-22, N-((1R,2S)-1-((2R,4R)-4-(benzyloxy)pyrrolidin-2-yl)-1-hydroxy-3-phenylpropan-2-yl)-3-((R)-2-(4-methylthiazol-2-yl)pyrrolidine-1-carbonyl)benzamide] | > 6.30 |
| Cc1csc([C@H]2CCCN2C(=O)c2cc(C(=O)N[C@@H](Cc3ccccc3)[C@H](O)[C@H]3C[C@@H](OCc4ccccc4)CN3)cc(-n3cccc3)c2)n1 [1-25, N-((1R,2S)-1-((2R,4R)-4-(benzyloxy)pyrrolidin-2-yl)-1-hydroxy-3-phenylpropan-2-yl)-3-((R)-2-(4-methylthiazol-2-yl)pyrrolidine-1-carbonyl)-5-(1H-pyrrol-1-yl)benzamide] | > 6.30 |
| Cc1csc(CN(C)C(=O)c2cc(C(=O)N[C@@H](Cc3ccccc3)[C@H](O)[C@H]3CCCN3)cc(N(C)S(C)(=O)=O)c2)n1 [1-27, N1-((1R,2S)-1-hydroxy-3-phenyl-1-((R)-pyrrolidin-2-yl)propan-2-yl)-N3-methyl-5-(N-methylmethylsulfonamido)-N3-((4-methylthiazol-2-yl)methyl)isophthalamide] | > 6.30 |

Results, then the compound that gave them:

| pIC50 | SMILES |
| --- | --- |
| < 6.00 | Cc1coc([C@H]2CCCN2C(=O)c2cccc(C(=O)N[C@@H](Cc3ccccc3)[C@H](O)[C@H]3CCCN3)c2)n1 [1-4, N-((1R,2S)-1-hydroxy-3-phenyl-1-((R)-pyrrolidin-2-yl)propan-2-yl)-3-((R)-2-(4-methyloxazol-2-yl)pyrrolidine-1-carbonyl)benzamide] |
| < 6.00 | Cc1cc(C(=O)N[C@@H](Cc2ccccc2)[C@H](O)[C@H]2CCCN2)cc(C(=O)N2CCC[C@@H]2c2nc(C)co2)c1 [1-8, N-((1R,2S)-1-hydroxy-3-phenyl-1-((R)-pyrrolidin-2-yl)propan-2-yl)-3-methyl-5-((R)-2-(4-methyloxazol-2-yl)pyrrolidine-1-carbonyl)benzamide] |
| > 6.30 | Cc1csc([C@H]2CCCN2C(=O)c2cc(C(=O)N[C@@H](Cc3ccccc3)[C@H](O)[C@H]3CCCN3)cc(C(F)F)c2)n1 [1-14, 3-(difluoromethyl)-N-((1R,2S)-1-hydroxy-3-phenyl-1-((R)-pyrrolidin-2-yl)propan-2-yl)-5-((R)-2-(4-methylthiazol-2-yl)pyrrolidine-1-carbonyl)benzamide] |
| > 6.30 | Cc1csc(CN(C)C(=O)c2cc(C(=O)N[C@@H](Cc3ccccc3)[C@H](O)[C@H]3CCCN3)cc(-c3ncco3)c2)n1 [1-15, N1-((1R,2S)-1-hydroxy-3-phenyl-1-((R)-pyrrolidin-2-yl)propan-2-yl)-N3-methyl-N3-((4-methylthiazol-2-yl)methyl)-5-(oxazol-2-yl)isophthalamide] |
| 6.00 to 6.30 | Cc1csc([C@H]2CCCN2C(=O)c2cc(C(=O)N[C@@H](Cc3ccccc3)[C@H](O)[C@H]3CCCN3)cc(-n3cccc3)c2)n1 [1-16, N1-((1R,2S)-1-hydroxy-3-phenyl-1-((R)-pyrrolidin-2-yl)propan-2-yl)-3-((R)-2-(4-methylthiazol-2-yl)pyrrolidine-1-carbonyl)-5-(1H-pyrrol-1-yl)benzamide] |
| > 6.30 | Cc1coc([C@H]2CCCN2C(=O)c2cc(C(=O)N[C@@H](Cc3ccccc3)[C@H](O)[C@H]3CCCN3)cc(-c3ncco3)c2)n1 [1-17, N-((1R,2S)-1-hydroxy-3-phenyl-1-((R)-pyrrolidin-2-yl)propan-2-yl)-3-((R)-2-(4-methyloxazol-2-yl)pyrrolidine-1-carbonyl)-5-(oxazol-2-yl)benzamide] |
| > 6.30 | Cc1csc([C@H]2CCCN2C(=O)c2cc(C(=O)N[C@@H](Cc3ccccc3)[C@H](O)[C@H]3CCCN3)cc(-c3ncco3)c2)n1 [1-19, N-((1R,2S)-1-hydroxy-3-phenyl-1-((R)-pyrrolidin-2-yl)propan-2-yl)-3-((R)-2-(4-methylthiazol-2-yl)pyrrolidine-1-carbonyl)-5-(oxazol-2-yl)benzamide] |
| > 6.30 | Cc1csc([C@H]2CCCN2C(=O)c2cc(C(=O)N[C@@H](Cc3ccccc3)[C@H](O)[C@H]3CCCN3)cc(-c3cnccn3)c2)n1 [1-20, N-((1R,2S)-1-hydroxy-3-phenyl-1-((R)-pyrrolidin-2-yl)propan-2-yl)-3-((R)-2-(4-methylthiazol-2-yl)pyrrolidine-1-carbonyl)-5-(pyrazin-2-yl)benzamide] |
| > 6.30 | Cc1coc([C@H]2CCCN2C(=O)c2cc(C(=O)N[C@@H](Cc3ccccc3)[C@H](O)[C@H]3CCCN3)cc(-c3cnccn3)c2)n1 [1-21, N-((1R,2S)-1-hydroxy-3-phenyl-1-((R)-pyrrolidin-2-yl)propan-2-yl)-3-((R)-2-(4-methyloxazol-2-yl)pyrrolidine-1-carbonyl)-5-(pyrazin-2-yl)benzamide] |
| > 6.30 | Cc1csc([C@H]2CCCN2C(=O)c2cc(C(=O)N[C@@H](Cc3ccccc3)[C@H](O)[C@H]3CCCN3)cc(N(C)S(C)(=O)=O)c2)n1 [1-23, N-((1R,2S)-1-hydroxy-3-phenyl-1-((R)-pyrrolidin-2-yl)propan-2-yl)-3-(N-methylmethylsulfonamido)-5-((R)-2-(4-methylthiazol-2-yl)pyrrolidine-1-carbonyl)benzamide] |
| > 6.30 | Cc1coc([C@H]2CCCN2C(=O)c2cc(C(=O)N[C@@H](Cc3ccccc3)[C@H](O)[C@H]3CCCN3)cc(-c3ccccn3)c2)n1 [1-24, N-((1R,2S)-1-hydroxy-3-phenyl-1-((R)-pyrrolidin-2-yl)propan-2-yl)-3-((R)-2-(4-methyloxazol-2-yl)pyrrolidine-1-carbonyl)-5-(pyridin-2-yl)benzamide] |
